# Test results reported in patent US20240261348A1, “LACTOBACILLUS PLANTARUM-DERIVED VESICLE AND USE THEREOF” (priority 2021, published 2024).
# Tested on: AMPK (pAMPK) in muscle cells (L6 myotube cells)
# Assay: AMPK activation in muscle cells (pAMPK western blotting)
# Type: cell-based
# Method: Therefore, an experiment was conducted to evaluate whether Lactobacillus plantarum-derived vesicles (Lp EV) affect cellular aging through AMPK activation in cells. To evaluate AMPK activation according to a concentration of treated Lactobacillus plantarum-derived vesicles in vitro, muscle cells (L6 myotube cells) were treated with the Lactobacillus plantarum-derived vesicles at 0, 0.1, 1, or 10 μg/mL for 1 hour. As a control, insulin (1 μM), which promotes aging and metformin (50 mM), which inhibits aging were used. After treating the cells with the drug, the difference in the amount of pAMPK, which is a key indicator in AMPK signaling, was measured through western blotting. […] To perform BCA quantitative analysis, the 1.5 mL microtube containing 5 μL of the lysed sample supernatant was taken out at room temperature, 20 μL of sterile distilled water was added thereto, and the resulting solution was vortexed and then spun down. […] After reacting in a 37° C. incubator for 30 minutes, absorbance was measured at 562 nm using a SpectraMax M3 microplate reader (Molecular Devices, USA). For western blotting, in the process of tris-glycine SDS-polyacrylamide gel electrophoresis, a 10% gel was prepared, and 50 μg of a protein for each sample was quantified and loaded. […]
Compound,phosphorylation of AMPK (pAMPK) (metformin 50 mM for 1 hour (FIG. 8)),phosphorylation of AMPK (pAMPK) (insulin 1 μM for 1 hour (FIG. 8))
CN(C)C(=N)N=C(N)N [metformin],increased,
insulin,,inhibited
